This is an account of results in article PMC8869358, “High-Throughput Chemical Screening and Structure-Based Models to Predict hERG Inhibition” (Biology, 2022).

Structures can show the parent of a compound that is named as a salt.

For the assay, the target named is hERG (Homo sapiens, UniProt Q12809). The assay can be described thus: cell-based. As to conditions: (-LOG10(IC50), µM).
hERG, sequence (Q12809 whole entry): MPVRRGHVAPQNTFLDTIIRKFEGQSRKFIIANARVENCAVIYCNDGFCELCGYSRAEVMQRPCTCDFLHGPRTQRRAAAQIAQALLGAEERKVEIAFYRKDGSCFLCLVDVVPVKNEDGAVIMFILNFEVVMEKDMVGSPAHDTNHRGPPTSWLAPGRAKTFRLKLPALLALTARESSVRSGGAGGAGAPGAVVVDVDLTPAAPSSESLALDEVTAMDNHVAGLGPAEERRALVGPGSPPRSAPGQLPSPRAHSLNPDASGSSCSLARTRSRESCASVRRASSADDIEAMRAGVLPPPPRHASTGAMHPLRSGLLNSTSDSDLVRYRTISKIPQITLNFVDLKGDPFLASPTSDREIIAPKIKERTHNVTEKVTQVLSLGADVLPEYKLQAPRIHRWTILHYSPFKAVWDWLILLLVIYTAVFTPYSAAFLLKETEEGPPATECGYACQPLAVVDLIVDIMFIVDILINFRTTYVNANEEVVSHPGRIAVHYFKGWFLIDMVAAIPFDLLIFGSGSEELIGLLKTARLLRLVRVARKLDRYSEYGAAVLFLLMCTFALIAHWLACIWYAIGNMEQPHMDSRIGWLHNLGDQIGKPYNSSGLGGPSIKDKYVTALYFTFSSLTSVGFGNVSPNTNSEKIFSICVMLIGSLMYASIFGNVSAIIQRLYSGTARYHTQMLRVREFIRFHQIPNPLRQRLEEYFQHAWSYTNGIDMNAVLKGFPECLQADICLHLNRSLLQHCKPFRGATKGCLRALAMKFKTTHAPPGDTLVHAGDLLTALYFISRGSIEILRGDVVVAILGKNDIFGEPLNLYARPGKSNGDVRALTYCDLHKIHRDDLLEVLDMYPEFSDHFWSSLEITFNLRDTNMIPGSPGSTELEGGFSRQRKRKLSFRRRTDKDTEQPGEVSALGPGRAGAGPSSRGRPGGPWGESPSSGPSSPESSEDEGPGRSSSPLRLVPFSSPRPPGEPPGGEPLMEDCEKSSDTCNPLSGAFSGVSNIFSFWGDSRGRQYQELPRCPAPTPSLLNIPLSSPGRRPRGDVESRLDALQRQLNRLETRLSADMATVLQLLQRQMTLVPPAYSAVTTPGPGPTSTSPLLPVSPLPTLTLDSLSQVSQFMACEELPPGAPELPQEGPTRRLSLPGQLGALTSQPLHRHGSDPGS
Usually IC50 stands for the concentration that inhibits the measured activity by half. Read a low IC50 as inhibition by little substance. In turn, `CCCN(CCC)C(=O)Cc1c(-c2ccc(Cl)cc2)nc2ccc(Cl)cn12` [Alpidem] had an IC50 of 20.5 µM. The value for `O=C(c1ccc(F)cc1)C1CCN(CCn2c(=S)[nH]c3ccccc3c2=O)CC1` [Altanserin hydrochloride] was 0.817 µM; that for `Nc1ccc(C(=O)N2CC3CC(CN(Cc4ccccc4)C3)C2)cc1` [Ambasilide] was 21.3 µM.

On to `CCC(C)(C)c1ccc(CC(C)CN2C[C@@H](C)O[C@@H](C)C2)cc1` (stereo partly drawn) [Amorolfine], for which the IC50 was 9.16 µM. The result for `CCOC(=O)C1(c2ccccc2)CCN(CCc2ccc(N)cc2)CC1` [Anileridine] reads 18.3 µM; that for `c1ccc(CN(CC2=NCCN2)c2ccccc2)cc1` [Antazoline hydrochloride], 15.7 µM; that for `CCCCN1C(=O)[C@@H]([C@H](O)C2CCCCC2)NC(=O)C12CCN(Cc1ccc(Oc3ccc(C(=O)O)cc3)cc1)CC2` [Aplaviroc hydrochloride], 17.4 µM.

On to `CCN(CC)CCCN(c1ccccc1)C1Cc2ccccc2C1` [Aprindine hydrochloride], for which the midpoint of inhibition, the IC50, lay at 2.79 µM. The result for `CCN(CC)CCOC(=O)C(C)(c1ccccc1)c1ccccc1` [Aprofene] reads 9.16 µM; that for `CCc1cccc(N(C)C(N)=Nc2cccc3ccccc23)c1` [Aptiganel hydrochloride], 10.3 µM.

Compound `CN(C)c1ccc(C(=N)c2ccc(N(C)C)cc2)cc1` [Auramine hydrochloride] showed an IC50 of 44.8 µM. The result for `O=C(CCCN1CCN(c2ccccn2)CC1)c1ccc(F)cc1` [Azaperone] reads 4.77 µM; that for `CC1=C(C(=O)OC(C)C)C(c2cccc([N+](=O)[O-])c2)C(C(=O)OC2CN(C(c3ccccc3)c3ccccc3)C2)=C(N)N1` (stereo not drawn) [Azelnidipine], 8.99 µM. `CN1CCC(N(Cc2ccccc2)c2ccccc2)CC1` [Bamipine] gave an IC50 of 3.94 µM.

`C[C@H]1C[C@H]2[C@@H]3CCC4=CC(=O)C=C[C@]4(C)[C@@]3(Cl)[C@@H](O)C[C@]2(C)[C@@]1(O)C(=O)CO` [Beclomethasone] gave an IC50 of 23.9 µM.

For the compound `CN1[C@@H]2CC[C@H]1C[C@@H](OC(=O)c1cc(Cl)cc(Cl)c1)C2` [Bemesetron], the IC50 was 6.01 µM.

`CCN(CC)CCOC(=O)C(O)(c1ccccc1)c1ccccc1` [Benactyzine] showed an IC50 of 11.5 µM. The value for `CC(Cc1cccc(C(F)(F)F)c1)NCCOC(=O)c1ccccc1` (stereo not drawn) [Benfluorex hydrochloride] was 9.52 µM; that for `O=C(CCCN1CCC(n2c(O)nc3ccccc32)CC1)c1ccc(F)cc1` [Benperidol] was 1.76 µM. The value for `CCc1oc2ccccc2c1C(=O)c1cc(Br)c(O)c(Br)c1` [Benzbromarone] was 10.7 µM; that for `c1ccc(CSCc2ccccc2)cc1` [Benzyl sulfide] was 47 µM. The result for `CCCCCCCCCCCCCC[N+](C)(C)Cc1ccccc1` [Benzyldimethyltetradecylammonium chloride dihydrate] reads 2.05 µM; that for `CCCCCCCCCCCCCCCC[N+](C)(C)Cc1ccccc1` [Benzylhexadecyldimethylammonium chloride], 3.94 µM; that for `c1ccc(C[P+](c2ccccc2)(c2ccccc2)c2ccccc2)cc1` [Benzyltriphenylphosphonium chloride], 2.27 µM. In turn, `O=c1[nH]c2ccc([S+]([O-])CCN3CCC(Cc4ccc(F)cc4)CC3)cc2o1` (stereo not drawn) [Besonprodil] showed an IC50 of 4.36 µM. The compound `COC(=O)c1cc(Oc2ccc(Cl)cc2Cl)ccc1[N+](=O)[O-]` [Bifenox] showed an IC50 of 23.6 µM. The result for `c1ccc(-c2ccc(C(c3ccccc3)n3ccnc3)cc2)cc1` (stereo not drawn) [Bifonazole] reads 12.5 µM. The result for `CCOCCn1c(C2CCN(CCc3ccc(C(C)(C)C(=O)O)cc3)CC2)nc2ccccc21` [Bilastine] reads 10.1 µM. The result for `CCC(C)c1cc([N+](=O)[O-])cc([N+](=O)[O-])c1OC(=O)C=C(C)C` (stereo not drawn) [Binapacryl] reads 30.9 µM.

Turning to `O=C1CC2(CCCC2)CC(=O)N1CCNCC1COc2ccccc2O1` (stereo not drawn) [Binospirone mesylate], the midpoint of inhibition, the IC50, lay at 19 µM.
